Laboratory results published in article PMC7215599, “Synthesis, Antitumor Evaluation, Molecular Modeling and Quantitative Structure–Activity Relationship (QSAR) of Novel 2-[(4-Amino-6-N-substituted-1,3,5-triazin-2-yl)methylthio]-4-chloro-5-methyl-N-(1H-benzo[d]imidazol-2(3H)-ylidene)Benzenesulfonamides” (International Journal of Molecular Sciences, 2020).

Tests used:
[1] = test system: HCT-116 (colon cancer) cell line; experiment: MTT cell viability assay, HCT-116; assay type: cell-based, human; conditions: Homo sapiens, HCT-116, 72 h, MTT, 72 h, 1-100 µM, mean ± SD
Procedure: (§1) Compounds 6–49 were evaluated in vitro for their effects on the viability of the three human cancer cell lines: HCT-116 (colon cancer), MCF-7 (breast cancer) and HeLa (cervical cancer) as well as the non-cancerous keratinocyte cell line (HaCaT). The concentration required for 50% inhibition of cell viability IC50 was calculated and compared with the reference drug cisplatin, the results are shown in Table 1.
(§2) Cell lines: colon cancer (HCT-116), breast cancer (MCF-7), cervical cancer (HeLa), the human keratinocyte cell line (HaCaT); NT—not tested; IC50 was measured at concentrations 1, 10, 25, 50, and 100 µM. IC50 values are expressed as the mean ± SD of at last three independent experiments.
(§3) All chemicals, if not stated otherwise, were obtained from Sigma–Aldrich (St. Louis, MO, USA). The HCT-116 cell lines was purchased from ATCC (ATCC-No: CCL-247), while the MCF-7, HeLa and HaCaT cell lines were purchased from Cell Lines Services (Eppelheim, Germany). Cells were cultured in Dulbecco’s modified Eagle’s medium (DMEM) supplemented with 10% fetal bovine serum, 2 mM glutamine, 100 units/mL penicillin, and 100 µg/mL streptomycin. Cultures were maintained in a humidified atmosphere with 5% carbon dioxide at 37 °C in an incubator (Heraceus, HeraCell).
(§4) Cell viability was examined using the MTT (3-(4,5-dimethylthiazol-2-yl)-2,5-diphenyltetrazolium bromide) assay. Cells were seeded in 96-well plates at a density of 5 × 10^3 cells/well and treated for 72 h with the tested compounds in the concentration range of 1–100 µM (1, 10, 25, 50 and 100 µM). Then, MTT (0.5 mg/mL) was added to the medium and cells were further incubated for 2 h at 37 °C. In the next stage, cells were lysed with DMSO and the absorbance of the formazan solution was measured at 550 nm with a plate reader (1420 multilabel counter, Victor, Jügesheim, Germany). The experiment was performed in triplicate. Values are expressed as the mean ± SD of at least three independent experiments. Cisplatin was used as a positive control.

[2] = test system: MCF-7 (breast cancer) cell line; experiment: MTT cell viability assay, MCF-7; assay type: cell-based, human; conditions: MTT, 72 h, 1-100 µM, mean ± SD
Procedure: as §1, §2, §3, §4

[3] = test system: HeLa (cervical cancer) cell line; experiment: MTT cell viability assay, HeLa; assay type: cell-based, human; conditions: Homo sapiens, HeLa, 72 h, MTT, 1-100 µM, mean ± SD
Procedure: as §1, §2, §3, §4

[4] = test system: HaCaT (non-cancerous keratinocyte cell line); experiment: MTT cell viability assay, HaCaT; assay type: cell-based; conditions: Homo sapiens, 72 h, 1-100 µM, mean ± SD, non-cancerous cells
Procedure: as §1, §2, §3, §4

`COc1ccccc1N1CCN(c2nc(N)nc(CSc3cc(Cl)c(C)cc3S(=O)(=O)N=c3[nH]c4ccccc4[nH]3)n2)CC1` [Compound 28, 2-[{4-Amino-6-[4-(2-methoxyphenyl)piperazin-1-yl]-1,3,5-triazin-2-yl}metylthio]-N-(1H-benzo[d]imidazol-2(3H)-ylidene)-4-chloro-5-methylbenzenesulfonamide] gave an IC50 [1] of 16 ± 1 µM, an IC50 ([2]; Homo sapiens, MCF7, 72 h) of 24 ± 1 µM and an IC50 [3] of 24 ± 1 µM. The IC50 [4] was 35 ± 1 µM.

In the case of `Cc1cc(S(=O)(=O)N=c2[nH]c3ccccc3[nH]2)c(SCc2nc(N)nc(Nc3ccc(F)cc3)n2)cc1Cl` [Compound 12, 2-[{4-Amino-6-[(4-fluorophenyl)amino]-1,3,5-triazin-2-yl}metylthio]-N-(1H-benzo[d]imidazol-2(3H)-ylidene)-4-chloro-5-methylbenzenesulfonamide], the IC50 [1] is reported as 36 ± 1 µM, the IC50 ([2]; Homo sapiens, MCF7, 72 h) is reported as 35 ± 2 µM and the IC50 [3] is reported as 36 ± 2 µM. It also gave an IC50 [4] of 43 ± 2 µM.

`Cc1cc(S(=O)(=O)N=c2[nH]c3ccc(F)cc3[nH]2)c(SCc2nc(N)nc(N(C)c3ccc(Cl)cc3)n2)cc1Cl` [Compound 36, 2-[{4-Amino-6-[(4-chlorophenyl)(methyl)amino]-1,3,5-triazin-2-yl}metylthio]-4-chloro-N-(5-fluoro-1H-benzo[d]imidazol-2(3H)-ylidene)-5-methylbenzenesulfonamide] showed an IC50 [1] of 18 ± 0.5 µM, an IC50 ([2]; Homo sapiens, MCF7, 72 h) of 37 ± 2 µM and an IC50 [3] of 29 ± 1 µM. It also gave an IC50 [4] of 49 ± 1 µM.

Work on `CC1=NN(c2nc(N)nc(CSc3cc(Cl)c(C)cc3S(=O)(=O)N=c3[nH]c4ccccc4[nH]3)n2)C(C)(C)C1` [Compound 8, 2-{[4-Amino-6-(3,5,5-trimethyl-4,5-dihydro-1H-pyrazol-1-yl)-1,3,5-triazin-2-yl]metylthio}-N-(1H-benzo[d]imidazol-2(3H)-ylidene)-4-chloro-5-methylbenzenesulfonamide] yielded an IC50 [1] of 23 ± 1 µM, an IC50 ([2]; Homo sapiens, MCF7, 72 h) of 34 ± 2 µM and an IC50 [3] of 31 ± 2 µM. For the same compound, the IC50 [4] was 43 ± 2 µM.

With `CC1=NN(c2nc(N)nc(CSc3cc(Cl)c(C)cc3S(=O)(=O)N=c3[nH]c4ccc(F)cc4[nH]3)n2)C(C)(C)C1` [Compound 33, 2-{[4-Amino-6-(3,5,5-trimethyl-4,5-dihydro-1H-pyrazol-1-yl)-1,3,5-triazin-2-yl]metylthio}-4-chloro-N-(5-fluoro-1H-benzo[d]imidazol-2(3H)-ylidene)-5-methylbenzenesulfonamide] the IC50 [1] was 19 ± 1 µM, the IC50 ([2]; Homo sapiens, MCF7, 72 h) was 35 ± 2 µM and the IC50 [3] was 30 ± 2 µM. The IC50 [4] was 48 ± 2 µM.

`Cc1cc(S(=O)(=O)N=c2[nH]c3ccc(Cl)cc3[nH]2)c(SCc2nc(N)nc(N3CCN(c4ccc(C(F)(F)F)cc4)CC3)n2)cc1Cl` [Compound 47, 2-{[4-Amino-6-{4-[4-(trifluoromethyl)phenyl]piperazin-1-yl}-1,3,5-triazin-2-yl]methylthio}-4-chloro-N-(5-chloro-1H-benzo[d]imidazol-2(3H)-ylidene)-5-methylbenzenesulfonamide] showed an IC50 [1] of 21 ± 1 µM, an IC50 ([2]; Homo sapiens, MCF7, 72 h) of 24 ± 1 µM and an IC50 [3] of 22 ± 1 µM. It also gave an IC50 [4] of 38 ± 1 µM.

`Cc1cc(S(=O)(=O)N=c2[nH]c3ccccc3[nH]2)c(SCc2nc(N)nc(N(C)c3ccccc3)n2)cc1Cl` [Compound 16, 2-[{4-Amino-6-[methyl(phenyl)amino]-1,3,5-triazin-2-yl}metylthio]-N-(1H-benzo[d]imidazol-2(3H)-ylidene)-4-chloro-5-methylbenzenesulfonamide] showed an IC50 [1] of 33 ± 1 µM, an IC50 ([2]; Homo sapiens, MCF7, 72 h) of 32 ± 1 µM and an IC50 [3] of 33 ± 1 µM. For the same compound, the IC50 [4] was 45 ± 2 µM.

`CC1=NN(c2nc(N)nc(CSc3cc(Cl)c(C)cc3S(=O)(=O)N=c3[nH]c4ccc(Cl)cc4[nH]3)n2)C(C)(C)C1` [Compound 41, 2-{[4-Amino-6-(3,5,5-trimethyl-4,5-dihydro-1H-pyrazol-1-yl)-1,3,5-triazin-2-yl]metylthio}-4-chloro-N-(5-chloro-1H-benzo[d]imidazol-2(3H)-ylidene)-5-methylbenzenesulfonamide] was tested, and the IC50 [1] was 25 ± 1 µM, the IC50 ([2]; Homo sapiens, MCF7, 72 h) was 38 ± 2 µM and the IC50 [3] was 30 ± 1 µM. It also gave an IC50 [4] of 49 ± 1 µM.

In the case of `Cc1cc(S(=O)(=O)N=c2[nH]c3ccccc3[nH]2)c(SCc2nc(N)nc(N3CCN(C(c4ccccc4)c4ccccc4)CC3)n2)cc1Cl` [Compound 31], the IC50 [1] is reported as 18 ± 1 µM, the IC50 ([2]; Homo sapiens, MCF7, 72 h) is reported as 46 ± 2 µM and the IC50 [3] is reported as 39 ± 1 µM. The IC50 [4] was 54 ± 2 µM.

`Cc1cc(S(=O)(=O)N=c2[nH]c3ccccc3[nH]2)c(SCc2nc(N)nc(N3CCN(Cc4ccccc4)CC3)n2)cc1Cl` [Compound 30, 2-{[4-Amino-6-(4-benzylpiperazin-1-yl)-1,3,5-triazin-2-yl]methylthio}-N-(1H-benzo[d]imidazol-2(3H)-ylidene)-4-chloro-5-methylbenzenesulfonamide] gave an IC50 [1] of 17 ± 0.5 µM, an IC50 ([2]; Homo sapiens, MCF7, 72 h) of 24 ± 1 µM and an IC50 [3] of 18 ± 1 µM. It also gave an IC50 [4] of 36 ± 2 µM.

With `Cc1cc(S(=O)(=O)N=c2[nH]c3ccc(Cl)cc3[nH]2)c(SCc2nc(N)nc(N3CCN(c4ccccc4)CC3)n2)cc1Cl` [Compound 45, 2-[{4-Amino-6-[4-(4-phenyl)piperazin-1-yl]-1,3,5-triazin-2-yl}metylthio]-4-chloro-N-(5-chloro-1H-benzo[d]imidazol-2(3H)-ylidene)-5-methylbenzenesulfonamide] the IC50 [1] was 15 ± 1 µM, the IC50 ([2]; Homo sapiens, MCF7, 72 h) was 26 ± 1 µM and the IC50 [3] was 28 ± 1 µM. For the same compound, the IC50 [4] was 39 ± 1 µM.

Work on `Cc1cc(S(=O)(=O)N=c2[nH]c3ccccc3[nH]2)c(SCc2nc(N)nc(N3CCN(c4ccc(Cl)c(Cl)c4)CC3)n2)cc1Cl` [Compound 25, 2-[{4-Amino-6-[4-(3,4-dichlorophenyl)piperazin-1-yl]-1,3,5-triazin-2-yl}metylthio]-N-(1H-benzo[d]imidazol-2(3H)-ylidene)-4-chloro-5-methylbenzenesulfonamide] yielded an IC50 [1] of 16 ± 1 µM, an IC50 ([2]; Homo sapiens, MCF7, 72 h) of 46 ± 2 µM and an IC50 [3] of 28 ± 1 µM. It also gave an IC50 [4] of 52 ± 2 µM.

In the case of `COc1ccccc1N1CCN(c2nc(N)nc(CSc3cc(Cl)c(C)cc3S(=O)(=O)N=c3[nH]c4ccc(Cl)cc4[nH]3)n2)CC1` [Compound 49, 2-[{4-Amino-6-[4-(2-methoxyphenyl)piperazin-1-yl]-1,3,5-triazin-2-yl}methylthio]-4-chloro-N-(5-chloro-1H-benzo[d]imidazol-2(3H)-ylidene)-5-methylbenzenesulfonamide], the IC50 [1] is reported as 30 ± 1 µM, the IC50 ([2]; Homo sapiens, MCF7, 72 h) is reported as 35 ± 1 µM and the IC50 [3] is reported as 34 ± 1 µM. For the same compound, the IC50 [4] was 96 ± 1 µM.

Work on `Cc1cc(S(=O)(=O)N=c2[nH]c3ccccc3[nH]2)c(SCc2nc(N)nc(N3CCCc4ccccc43)n2)cc1Cl` [Compound 10, 2-{[4-Amino-6-(3,4-dihydroquinolin-1(2H)-yl)-1,3,5-triazin-2-yl]methylthio}-N-(1H-benzo[d]imidazol-2(3H)-ylidene)-4-chloro-5-methylbenzenesulfonamide] yielded an IC50 [1] of 32 ± 3 µM, an IC50 ([2]; Homo sapiens, MCF7, 72 h) of 25 ± 1 µM and an IC50 [3] of 30 ± 1 µM. It also gave an IC50 [4] of 45 ± 2 µM.

Compound `Cc1cc(S(=O)(=O)N=c2[nH]c3ccc(F)cc3[nH]2)c(SCc2nc(N)nc(N3CCN(c4ccc(Cl)cc4)CC3)n2)cc1Cl` [Compound 39, 2-[{4-Amino-6-[4-(4-chlorophenyl)piperazin-1-yl]-1,3,5-triazin-2-yl}metylthio]-4-chloro-N-(5-fluoro-1H-benzo[d]imidazol-2(3H)-ylidene)-5-methylbenzenesulfonamide] has an IC50 [1] of 35 ± 2 µM, an IC50 ([2]; Homo sapiens, MCF7, 72 h) greater than 100 µM and an IC50 [2] of 74 ± 2 µM. It also gave an IC50 [3] of 28 ± 2 µM and an IC50 [4] of 76 ± 2 µM.
